PubChem BioAssay (NCI)
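All cell lines were grown in 96-well plates and treated with compound for 48 hours. TGI: total growth inhibition.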

Experiments:
Assay in all cases: NCI tumour cell line growth inhibition, 48 h
U251 CNS = tested on: U251 CNS
LXFL 529 NSCLC = tested on: LXFL 529 NSCLC
UACC-257 melanoma = tested on: UACC-257 melanoma
UACC-62 melanoma = tested on: UACC-62 melanoma
SK-MEL-2 melanoma = tested on: SK-MEL-2 melanoma
ACHN renal = tested on: ACHN renal
SNB-78 CNS = tested on: SNB-78 CNS
DMS 114 small cell lung = tested on: DMS 114 small cell lung
OVCAR-8 ovarian = tested on: OVCAR-8 ovarian
HOP-92 NSCLC = tested on: HOP-92 NSCLC
SF-268 CNS = tested on: SF-268 CNS
DMS 273 small cell lung = tested on: DMS 273 small cell lung
NCI-H460 lung = tested on: NCI-H460 lung
SR leukemia = tested on: SR leukemia
IGROV1 ovarian = tested on: IGROV1 ovarian
RPMI-8226 leukemia = tested on: RPMI-8226 leukemia
HT29 colon = tested on: HT29 colon
COLO 205 colon = tested on: COLO 205 colon
KM12 colon = tested on: KM12 colon
EKVX NSCLC = tested on: EKVX NSCLC
SK-MEL-28 melanoma = tested on: SK-MEL-28 melanoma
SF-539 CNS = tested on: SF-539 CNS
DLD-1 colon = tested on: DLD-1 colon
SK-MEL-5 melanoma = tested on: SK-MEL-5 melanoma
SW-620 colon = tested on: SW-620 colon
NCI-H23 lung = tested on: NCI-H23 lung
HCC-2998 colon = tested on: HCC-2998 colon
786-0 renal = tested on: 786-0 renal
HL-60(TB) leukemia = tested on: HL-60(TB) leukemia
OVCAR-5 ovarian = tested on: OVCAR-5 ovarian
UO-31 renal = tested on: UO-31 renal
SNB-75 CNS = tested on: SNB-75 CNS
SNB-19 CNS = tested on: SNB-19 CNS
A498 renal = tested on: A498 renal
A549 NSCLC = tested on: A549 NSCLC
HCT-116 colon = tested on: HCT-116 colon
SK-OV-3 ovarian = tested on: SK-OV-3 ovarian
TK-10 renal = tested on: TK-10 renal
MALME-3M melanoma = tested on: MALME-3M melanoma
KM20L2 colon = tested on: KM20L2 colon
M19-MEL melanoma = tested on: M19-MEL melanoma
SN12C renal = tested on: SN12C renal
RXF 393 renal = tested on: RXF 393 renal
SF-295 CNS = tested on: SF-295 CNS
CAKI-1 renal = tested on: CAKI-1 renal
XF 498 CNS = tested on: XF 498 CNS
MOLT-4 leukemia = tested on: MOLT-4 leukemia
NCI-H522 lung = tested on: NCI-H522 lung
OVCAR-4 ovarian = tested on: OVCAR-4 ovarian
HOP-62 NSCLC = tested on: HOP-62 NSCLC
K-562 leukemia = tested on: K-562 leukemia
NCI-H226 lung = tested on: NCI-H226 lung
OVCAR-3 ovarian = tested on: OVCAR-3 ovarian
CCRF-CEM leukemia = tested on: CCRF-CEM leukemia
M14 melanoma = tested on: M14 melanoma
HCT-15 colon = tested on: HCT-15 colon
LOX IMVI melanoma = tested on: LOX IMVI melanoma

Measured: TGI

COC(=O)c1nc(-c2ccc(Cl)c(Cl)c2)nc2ccc(Cl)cc12
84.1 µM: SF-539 CNS
51.3 µM: SNB-75 CNS
73 µM: 786-0 renal
37.7 µM: HOP-92 NSCLC
43.1 µM: SK-OV-3 ovarian
63.5 µM: RXF 393 renal
not listed: CAKI-1 renal | XF 498 CNS | MOLT-4 leukemia | NCI-H522 lung | OVCAR-4 ovarian | HOP-62 NSCLC | K-562 leukemia | NCI-H226 lung | OVCAR-3 ovarian | CCRF-CEM leukemia | M14 melanoma | HCT-15 colon | LOX IMVI melanoma
> 100 µM: all other assays above

COc1cc(Br)c(CC2NCCc3cc(OC)c(OC)cc32)cc1OC (configuration not stated)
not listed: DMS 114 small cell lung | DMS 273 small cell lung | IGROV1 ovarian | SF-539 CNS | SK-MEL-5 melanoma | RXF 393 renal | HCT-15 colon | LOX IMVI melanoma
> 100 µM: all other assays above

CN=C(NC#N)N(Cc1ccccc1)Cc1ccccc1
not listed: DMS 114 small cell lung | RXF 393 renal | K-562 leukemia
> 100 µM: all other assays above
